# According to US9499550B2 (BRISTOL-MYERS SQUIBB COMPANY, priority 2012, dated 2016):
# Read-outs that look alike come from different tables or passages of the source.
# Legend:
# [1] = system: HCV genotype 1a (H77 strain) replicon in HUH-7 cells; test: HCV replicon luciferase reporter assay, genotype 1a; assay type: cell-based; conditions: Hepatitis C virus, Huh-7, 72 h, 3 days incubation
# Method in brief: (§1)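 Replicon inhibition for both genotypes was measured as Renilla luciferase signal (EnduRen, 7.5 μM final, 2 h) after 3-day, 37° C exposure of replicon-bearing HUH-7 cells in 4% FCS DMEM, 0.5% DMSO. The 1b construct carries S1179I; the 1a H77 construct carries P1496L and S2204I. Twenty-point, 3-fold dilutions were fitted four-parametrically for EC50, and CC50 was taken from multiplexed Cell Titer-Blue.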
# [2] = system: HCV genotype 1b (Con1) replicon in HUH-7 cells; test: HCV replicon luciferase reporter assay, genotype 1b; assay type: cell-based; conditions: Hepatitis C virus, Huh-7, 72 h, 3 days incubation
# Method in brief: as §1
# [3] = HCV genotype 1a replicon luciferase, read-out: LE_1a (EC50, range)
# [4] = HCV genotype 1b replicon luciferase, read-out: LE_1b (EC50, range)
# [5] = HCV genotype 1a replicon luciferase assay, range class, read-out: LE_1a (EC50, range)
# [6] = HCV genotype 1b replicon luciferase assay, range class, read-out: LE_1b (EC50, range)
Structure (SMILES),"EC50 [1, 3]","EC50 [2, 4]","EC50 [1, 5]","EC50 [2, 6]","EC50 ([1]; HCV genotype 1a replicon luciferase assay, read-out: LE_1a (EC50))","EC50 ([2]; HCV genotype 1b replicon luciferase assay, read-out: LE_1b (EC50))"
"COc1ccc2c(O[C@@H]3C[C@H]4C(=O)N[C@]5(C(=O)NS(=O)(=O)C6(C)CC6)C[C@H]5/C=C\CC[C@@H](C)C[C@@H](C)[C@H](NC(=O)NC(C)(C)C)C(=O)N4C3)nccc2c1 [Compound 5179, (2R,6S,7R,9R,13aS,14aR,16aS,Z)-6-(3-(tert-butyl)ureido)-2-((6-methoxyisoquinolin-1-yl)oxy)-7,9-dimethyl-N-((1-methylcyclopropyl)sulfonyl)-5,16-dioxo-1,2,3,5,6,7,8,9,10,11,13a,14,14a,15,16,16a-hexadecahydrocyclopropa[e]pyrrolo[1,2-a][1,4]diazacyclopentadecine-14a-carboxamide]",< 5.46 nM,< 5.46 nM,–,–,–,–
"COc1ccc2c(O[C@@H]3C[C@H]4C(=O)N[C@]5(C(=O)NS(=O)(=O)C6(CF)CC6)C[C@H]5/C=C\CC[C@@H](C)C[C@@H](C)[C@H](NC(=O)OC(C)(C)C(F)(F)F)C(=O)N4C3)nc(OC)cc2c1 [Compound 1127, 1,1,1-trifluoro-2-methylpropan-2-yl((2R,6S,7R,9R,13aS,14aR,16aS,Z)-2-((3,6-dimethoxyisoquinolin-1-yl)oxy)-14a-(((1-(fluoromethyl)cyclopropyl)sulfonyl)carbamoyl)-7,9-dimethyl-5,16-dioxo-1,2,3,5,6,7,8,9,10,11,13a,14,14a,15,16,16a-hexadecahydrocyclopropa[e]pyrrolo[1,2-a][1,4]diazacyclopentadecin-6-yl)carbamate]",–,–,< 5.46 nM,< 5.46 nM,–,–
"CC(C)n1nc(O[C@@H]2C[C@H]3C(=O)N[C@]4(C(=O)NS(=O)(=O)C5(C)CC5)C[C@H]4/C=C\CC[C@H](C)C[C@@H](C)[C@H](NC(=O)OC(C)(C)C(F)(F)F)C(=O)N3C2)c2ccccc2c1=O [Compound 1011, 1,1,1-trifluoro-2-methylpropan-2-yl((2R,6S,7R,9S,13aS,14aR,16aS,Z)-2-((3-isopropyl-4-oxo-3,4-dihydrophthalazin-1-yl)oxy)-7,9-dimethyl-14a-(((1-methylcyclopropyl)sulfonyl)carbamoyl)-5,16-dioxo-1,2,3,5,6,7,8,9,10,11,13a,14,14a,15,16,16a-hexadecahydrocyclopropa[e]pyrrolo[1,2-a][1,4]diazacyclopentadecin-6-yl)carbamate]",–,–,> 87.4 nM,> 87.4 nM,≥ 1000 nM,362 nM
"C[C@@H]1CC/C=C\[C@@H]2C[C@@]2(C(=O)NS(=O)(=O)C2CC2)NC(=O)[C@@H]2C[C@@H](Oc3nc(OCC(F)F)cc4c(Cl)cccc34)CN2C(=O)[C@@H](NC(=O)OC(C)(C)C(F)(F)F)[C@H](C)C1 [Compound 1096, 1,1,1-trifluoro-2-methylpropan-2-yl((2R,6S,7R,9R,13aS,14aR,16aS,Z)-2-((5-chloro-3-(2,2-difluoroethoxyl)isoquinolin-1-yl)oxy)-14a-((cyclopropylsulfonyl)carbamoyl)-7,9-dimethyl-5,16-dioxo-1,2,3,5,6,7,8,9,10,11,13a,14,14a,15,16,16a-hexadecahydrocyclopropa[e]pyrrolo[1,2-a][1,4]diazacyclopentadecin-6-yl)carbamate]",–,–,< 5.46 nM,< 5.46 nM,–,–
"C[C@@H]1CC/C=C\[C@@H]2C[C@@]2(C(=O)NS(=O)(=O)C2(C)CC2)NC(=O)[C@@H]2C[C@@H](Oc3ncnc4c(Cl)cccc34)CN2C(=O)[C@@H](NC(=O)OC(C)(C)C)[C@H](C)C1 [Compound 4145, tert-butyl (2R,6S,7R,9R,13aS,14aR,16aS,Z)-2-(8-chloroquinazolin-4-yloxy)-7,9-dimethyl-14a-(1-methylcyclopropylsulfonylcarbamoyl)-5,16-dioxo-1,2,3,5,6,7,8,9,10,11,13a,14,14a,15,16,16a-hexadecahydrocyclopropa[e]pyrrolo[1,2-a][1,4]diazacyclopentadecin-6-ylcarbamate]",< 5.46 nM,< 5.46 nM,–,–,–,–
